“Also recorded” adds a separate entry of the source.
Columns and labels:
in vitro = assay type: cell-based, murine; settings: mouse, Raw264.7 cell viability
[1] = test system: Raw264.7 macrophage cells; test: in vitro; assay type: cell-based, murine; settings: Example 1 results
[2] = test system: IMQ-induced psoriasis-like skin inflammation; test: Mouse model of IMQ-induced psoriasis-like skin inflammation; assay type: in vivo, BALB/c mice; settings: topical Clobetasol 0.02%
Method: All experimental procedures were approved by the Mackay Memorial Hospital Animal Care and Uses Committee and conducted according to national animal welfare regulations. Psoriasis-like skin inflammation was created by treating mouse skin with Imiquimod (IMQ) in accordance with the procedures described by van der Fits et al (J Immunol. (2009), 182, 5836-5845). Accordingly, each BALB/c mice (8 weeks old) received a daily topical dose of 62.5 mg of commercially available IMQ cream (5%) on the shaved back and the right ear for 6 consecutive days; whereas the control mice (normal group) were treated with a control cream. For treatment, 7-mer analogue was mixed with IMQ cream to a concentration 100 μM.
Keratinocyte proliferation was determined by 5-bromo-2′-deoxyuridine (BrdU) incorporation. BrdU (Sigma-Aldrich) was reconstituted in DMSO as a stock solution of 80 mM. 10 μl of BrdU mixed with 90 μl of PBS was intraperitoneally injected into each mouse for 24 hr prior to euthanasia. Back skin was fixed overnight in 4% paraformaldehyde and embedded in paraffin for immunohistochemistry.
In this example, the efficacy of the present synthetic peptides of Example 1 on IMQ-induced psoriasis-like skin inflammation was investigated. To this purpose, animals (8-week-old mice) were given a daily topical dose of IMQ cream on the shaved back for six consecutive days, so as to induce psoriasis-like skin inflammation and desquamation (FIG. 1; left panel).
Psoriasis is a disease resulted from abnormal keratinocyte proliferation, thus the effects of the present synthetic peptides on the proliferation of keratinocytes were also monitored in accordance with procedures described in the section of “Materials and Methods”. Results are illustrated in FIG. 2.

Row | Structure (SMILES) | viability at 24 h, 20 μM (in vitro) [%] | bioactivity / inhibitory activity relative to 7-mer (in words) [1] | desquamation formation ([2]; FIG. 1) | skin atrophy ([2]; entire back of test animals)
1 | CC(=O)N[C@@H](C)C(=O)N[C@@H](CC(C)C)C(=O)N[C@@H](Cc1ccc(O)cc1)C(=O)N[C@@H](CCCNC(=N)N)C(=O)N[C@H](C(=O)N[C@@H](CCCNC(=N)N)C(=O)N[C@@H](CO)C(N)=O)C(C)C [7-mer Da, NH2-Ala-Leu-Tyr-Arg-Val-Arg-Ser-COOH] | 52.9 ± 0.84 | could sustain the inhibitory activity |  | 
2 | CC[C@H](C)[C@H](NC(=O)[C@H](CC(=O)O)NC(C)=O)C(=O)N[C@@H](Cc1ccc(O)cc1)C(=O)N[C@@H](CCCNC(=N)N)C(=O)N[C@H](C(=O)N1CCC[C@H]1C(=O)N[C@@H](CO)C(N)=O)C(C)C [7-mer IP, NH2-Asp-Ile-Tyr-Arg-Val-Pro-Ser-COOH] | 81.7 ± 4.5 | could sustain 7-mer bioactivity, only partly |  | 
3 | CC(=O)N[C@@H](CC(=O)O)C(=O)N[C@@H](CC(C)C)C(=O)N[C@@H](Cc1ccc(O)cc1)C(=O)N[C@@H](CCCCN)C(=O)N[C@H](C(=O)N1CCC[C@H]1C(=O)N[C@@H](CO)C(N)=O)C(C)C [7-mer KP, NH2-Asp-Leu-Tyr-Lys-Val-Pro-Ser-COOH] | 81.2 ± 3.43 | could sustain 7-mer bioactivity, only partly |  | 
4 | CC(=O)N[C@@H](CC(=O)O)C(=O)N[C@@H](C)C(=O)N[C@@H](Cc1ccc(O)cc1)C(=O)N[C@@H](CCCNC(=N)N)C(=O)N[C@H](C(=O)N[C@@H](CCCNC(=N)N)C(=O)N[C@@H](CO)C(N)=O)C(C)C [7-mer La, NH2-Asp-Ala-Tyr-Arg-Val-Arg-Ser-COOH] | 57.4 ± 1.71 | could sustain the inhibitory activity |  | 
5 | CSCC[C@H](NC(=O)[C@H](CCCNC(=N)N)NC(=O)[C@H](Cc1ccc(O)cc1)NC(=O)[C@H](CC(C)C)NC(=O)[C@H](CC(=O)O)NC(C)=O)C(=O)N[C@@H](CCCCN)C(=O)N[C@@H](CO)C(N)=O [7-mer MK, NH2-Asp-Leu-Tyr-Arg-Met-Lys-Ser-COOH] | 81.4 ± 0.64 | could sustain 7-mer bioactivity, only partly |  | 
6 | CC(=O)N[C@@H](CC(N)=O)C(=O)N[C@H](C(=O)N[C@@H](Cc1ccc(O)cc1)C(=O)N[C@@H](CCCNC(=N)N)C(=O)N[C@H](C(=O)N[C@@H](CCCNC(=N)N)C(=O)N[C@@H](CO)C(N)=O)C(C)C)C(C)C [7-mer NV, NH2-Asn-Val-Tyr-Arg-Val-Arg-Ser-COOH] | 74.8 ± 1.73 | could sustain 7-mer bioactivity, only partly |  | 
7 | CC(=O)N[C@@H](CC(=O)O)C(=O)N[C@@H](CC(C)C)C(=O)N[C@@H](Cc1ccc(O)cc1)C(=O)N[C@@H](CCCNC(=N)N)C(=O)N[C@@H](CCC(N)=O)C(=O)N[C@@H](CCCCN)C(=O)N[C@@H](CO)C(N)=O [7-mer QK, NH2-Asp-Leu-Tyr-Arg-Gln-Lys-Ser-COOH] | 77.7 ± 3.02 | could sustain 7-mer bioactivity, only partly |  | 
8 | CC(=O)N[C@@H](CC(=O)O)C(=O)N[C@H](C(=O)N[C@@H](Cc1ccccc1)C(=O)N[C@@H](CCCNC(=N)N)C(=O)N[C@H](C(=O)N[C@@H](CCCNC(=N)N)C(=O)N[C@H](C(N)=O)[C@@H](C)O)C(C)C)C(C)C [7-mer VFT, NH2-Asp-Val-Phe-Arg-Val-Arg-Thr-COOH] | 71.1 ± 2.48 | could sustain 7-mer bioactivity, only partly; also recorded: relatively the same bioactivity that is similar to the 7-mer |  | 
9 | CC[C@H](C)[C@H](NC(=O)[C@H](CCCNC(=N)N)NC(=O)[C@H](Cc1c[nH]c2ccccc12)NC(=O)[C@H](CC(C)C)NC(=O)[C@H](CC(=O)O)NC(C)=O)C(=O)N[C@@H](CCCNC(=N)N)C(=O)N[C@@H](CO)C(N)=O [7-mer WI, NH2-Asp-Leu-Trp-Arg-Ile-Arg-Ser-COOH] | 77.9 ± 2.87 | could sustain 7-mer bioactivity, only partly |  | 
10 | C[C@H]1C[C@H]2[C@@H]3CCC4=CC(=O)C=C[C@]4(C)[C@@]3(F)[C@@H](O)C[C@]2(C)[C@@]1(O)C(=O)CCl [Clobetasol, reference compound] |  |  | ameliorated desquamation formation | caused skin atrophy
